Laboratory results: article PMC5484788, “Development of a common carp (Cyprinus carpio) pregnane X receptor (cPXR) transactivation reporter assay and its activation by azole fungicides and pharmaceutical chemicals” (Toxicology in Vitro, 2017)
Where two headings read alike, the source gives them in different places. Blank lines part the entries; values can stand above or below the compound they belong to.

Assays:
[1] = test system: COS-7 cells; test: toxicity to COS-7 cells in the transactivation assays (inhibited cell growth); assay type: cell-based; settings: 100 μM, in both cPXR and hPXR assays
[2] = molecular target: cPXR (Cyprinus carpio, UniProt A0A1P8P0E9); test: carp PXR (cPXR) luciferase transactivation reporter assay, pGL4.24-6xPXRE reporter, COS-7 cells; settings: for transactivation of cPXR (result in words): concentration-response 10^-11 to 10^-5 M, pGL4.24-6xPXRE reporter
Protocol: For this, cDNA was reverse transcribed from 1 μg of carp liver total RNA as described above and amplified using the Advantage 2 DNA polymerase mix (Clontech) according to the manufacturer's instructions. The resulting PCR product was purified and sequenced to confirm the full sequence length and sub-cloned into pGEM-T Easy vector (Promega) following the manufacturer's recommendations. Plasmid DNA was isolated using the Wizard Plus SV minipreps DNA Purification system (Promega) according to manufacturer's instructions. Using the BamHI and EcoRV sites, the cPXR sequences was subsequently ligated into the eukaryotic expression vector pcDNA3.1(+) (Invitrogen) using the correspondent restriction enzymes (New England Biolabs, Hitchin, UK) and T4 DNA ligase (Promega).
(§1) A reporter vector was constructed based on several variations of the PXR response element (PXRE; Fig. 1). The PXRE occurs either as a direct or everted repeat of the consensus motif […], spaced by between 3 and 8 nucleotides. The PXRE sequence created here was based on that reported in [Xie et al. (2000)]. […] To maximise reporter efficiency, a further PXRE motif was added either side of the previously generated long chain oligo using PCR. […] The following PCR conditions were employed: 21 cycles of denaturation at 98 °C for 10 s, annealing at 60 °C for 5 s and elongation at 72 °C for 30 s. After purification, and using the appropriate restriction enzymes KpnI and HindIII, the obtained fragment was subsequently ligated into the pGL4.24[luc2P/minP] vector (Promega) which contains the firefly (Photinus pyralis) luciferase (luc2P) gene, to create the pGL4.24-6xPXRE reporter construct.
(§2) The cells were maintained at subconfluent densities and sub-cultured when reaching 80% confluency.
(§3) For transfection assays, cells were seeded in 24-well plates at 5 × 10^4 cells well^− 1 in phenol-red free DMEM (supplemented with 10% charcoal/dextran-treated foetal bovine serum (Hyclone). After 24 h, the cells were transiently transfected with 200 ng of either pcDNA3.1(+)/cPXR or pcDNA3.1(+)/hPXR, 400 ng of reporter construct (either MMTV/luc2/pGL4 (Promega) or pGL4.24-6xPXRE) and 100 ng of pRL-TK (driving the Renilla reniformis luciferase gene as an internal control to normalise for variations in transfection efficiency) using Fugene HD transfection reagent (Promega) in serum-free medium according to the manufacturer's protocol. Four hours after transfection, cells were treated with PXR agonists (see below). Forty-eight hours after transfection, cells were lysed and the luciferase activities of the cells were measured by a chemiluminescence assay with Dual-Luciferase Reporter Assay System (Promega) according to the manufacturer's instructions. Luminescence was measured using an Infinite 200 Pro plate reader (Tecan, Grödig, Austria). Promoter activity was calculated as firefly (Photinus pyralis)-luciferase activity/sea pansy (R. reniformis)-luciferase activity. All transfections were done at least three times, employing triplicate sample points in each experiment.
(§4) In addition to the pGL4.24-6xPXRE reporter construct, a commercially available MMTV/luc2/pGL4 reporter vector (Promega) was tested as a reporter plasmid (i.e. for PXRE function), as it is known to contain various nuclear receptor response elements in the promoter region.

[3] = molecular target: T1, hPXR (Homo sapiens, UniProt O75469); test: human PXR (hPXR) luciferase transactivation reporter assay, pGL4.24-6xPXRE reporter, COS-7 cells; settings: for maximal effect (Emax) hPXR, times that of the control: COS-7 cells, 44 h, relative to DMSO control
T1 sequence (O75469 1-473 isoform O75469-7): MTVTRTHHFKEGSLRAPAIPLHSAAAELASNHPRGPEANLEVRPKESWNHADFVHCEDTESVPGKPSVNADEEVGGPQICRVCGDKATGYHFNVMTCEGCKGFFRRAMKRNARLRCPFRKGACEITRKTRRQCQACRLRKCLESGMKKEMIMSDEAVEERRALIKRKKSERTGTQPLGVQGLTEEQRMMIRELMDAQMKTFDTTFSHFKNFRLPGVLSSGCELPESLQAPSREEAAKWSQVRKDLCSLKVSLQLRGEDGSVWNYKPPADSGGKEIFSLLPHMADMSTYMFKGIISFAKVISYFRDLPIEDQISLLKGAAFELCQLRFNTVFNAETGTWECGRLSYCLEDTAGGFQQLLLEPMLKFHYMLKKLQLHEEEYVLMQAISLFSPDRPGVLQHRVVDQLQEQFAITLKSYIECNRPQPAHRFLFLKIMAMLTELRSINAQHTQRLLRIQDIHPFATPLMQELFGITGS
Protocol: Human PXR (hPXR) clone cDNA was purchased from Promega. […] The following PCR protocol was employed: 21 cycles of denaturation at 98 °C for 10 s, annealing at 60 °C for 5 s and elongation at 72 °C for 15 s. The purified product was then ligated into the eukaryotic expression vector pcDNA3.1(+) (Invitrogen) using the correspondent restriction enzymes and T4 DNA ligase (Promega).
as §1, §2, §3, §4

[4] = test system: PXR from the pufferfish; settings: 50 μM; ref Milnes et al., 2008; cited from earlier work
[5] = test system: zebrafish PXR; settings: ref Bainy et al., 2013, cited from earlier work
[6] = test system: FHM PXR; set-up: method as in Milnes et al., 2008; settings: exposure to 50 μM; ref Milnes et al., 2008; cited from earlier work
[7] = concentration-response 10^-11 to 10^-5 M, pGL4.24-6xPXRE reporter

cPXR, sequence (A0A1P8P0E9 entry or part of it): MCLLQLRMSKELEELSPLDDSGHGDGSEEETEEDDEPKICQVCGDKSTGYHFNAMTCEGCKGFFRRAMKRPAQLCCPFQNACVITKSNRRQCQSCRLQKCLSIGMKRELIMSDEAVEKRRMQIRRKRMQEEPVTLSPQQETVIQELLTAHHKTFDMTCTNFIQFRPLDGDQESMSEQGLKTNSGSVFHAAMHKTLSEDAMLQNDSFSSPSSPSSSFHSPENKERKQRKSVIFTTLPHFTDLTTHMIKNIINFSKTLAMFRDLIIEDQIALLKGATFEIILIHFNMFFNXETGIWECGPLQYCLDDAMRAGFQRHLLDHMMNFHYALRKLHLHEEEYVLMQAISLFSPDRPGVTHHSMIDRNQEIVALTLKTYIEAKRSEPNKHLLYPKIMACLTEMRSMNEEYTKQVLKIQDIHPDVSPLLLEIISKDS

SMILES: CC/C(=C(\c1ccccc1)c1ccc(OCCN(C)C)cc1)c1ccccc1 [TAM, tamoxifen]
toxicity to COS-7 cells (inhibited cell growth) [1]: toxic
transactivation of cPXR (result in words) [2]: had no effect

SMILES: O=C(O)Cc1ccccc1Nc1c(Cl)cccc1Cl [DIC, diclofenac]
transactivation of cPXR (result in words) [2]: did not induce transactivation
transactivation of hPXR (result in words) [3]: did not induce transactivation

SMILES: CCCC1COC(Cn2cncn2)(c2ccc(Cl)cc2Cl)O1 (stereo not shown) [PCZ, propiconazole]
EC50 [2]: 213 nM
transactivation of cPXR (result in words) [2]: induced transactivational activity
transactivation of hPXR (result in words) [3, 7]: induced transactivational activity

SMILES: C#C[C@]1(O)CC[C@H]2[C@@H]3CCc4cc(O)ccc4[C@H]3CC[C@@]21C [EE2, 17α-ethinyloestradiol]
transactivation of cPXR (result in words) [2]: activated
concentration at which transactivation of cPXR was induced ([2]; only concentration giving induction, range 10^-11 to 10^-5 M): 10 µM
concentration at which transactivation of hPXR was induced [3]: 10 µM
transactivation of hPXR (result in words) [3]: activate hPXR

transactivation of hPXR (result in words) [3, 7]: induced transactivational activity
SMILES: Clc1ccc(COC(Cn2ccnc2)c2ccc(Cl)cc2Cl)c(Cl)c1 (stereo not shown) [MCZ, miconazole]

SMILES: CC(C)(Oc1ccc(Cl)cc1)C(=O)O [CFA, clofibric acid]
transactivation of cPXR (result in words) [2]: did not induce transactivation
transactivation of hPXR (result in words) [3, 7]: did not induce transactivation

SMILES: Cc1ccc(C)c(OCCCC(C)(C)C(=O)O)c1 [GEM, gemfibrozil]
transactivation of cPXR (result in words) [2]: did not induce transactivation
transactivation of hPXR (result in words) [3, 7]: did not induce transactivation

SMILES: CC(C)NCC(O)COc1ccc(CC(N)=O)cc1 (stereo not shown) [ATN, atenolol]
transactivation of cPXR (result in words) [2]: did not induce transactivation
transactivation of hPXR (result in words) [3, 7]: did not induce transactivation

SMILES: CC(C)Cc1ccc(C(C)C(=O)O)cc1 (stereo not shown) [IBU, ibuprofen]
transactivation of cPXR (result in words) [2]: did not induce transactivation

SMILES: CO[C@H]1/C=C/O[C@@]2(C)Oc3c(C)c(O)c4c(O)c(c(/C=N/N5CCN(C)CC5)c(O)c4c3C2=O)NC(=O)/C(C)=C\C=C\[C@H](C)[C@H](O)[C@@H](C)[C@@H](O)[C@@H](C)[C@H](OC(C)=O)[C@@H]1C [RIF, rifampicin]
transactivation of cPXR (result in words) [2]: not activated
activation of hPXR compared with control, single concentration ([3]; 1 μM (10^-6 M), pGL4.24-6xPXRE reporter, reporter plasmid comparison): significant activation
maximal effect (Emax) hPXR, times that of the control ([3]; pGL4.24-6xPXRE reporter): 6.4 x-fold
activation of pufferfish PXR [4]: activate

EC50 [3]: 880 nM
maximal effect (Emax) hPXR, times that of the control ([3]; pGL4.24-6xPXRE reporter): 4.8 x-fold
SMILES: Clc1ccccc1C(c1ccccc1)(c1ccccc1)n1ccnc1 [CTZ, clotrimazole]
zebrafish PXR up-regulation above controls ([5]; exposure concentrations between 0.5 and 50 μM, Milnes et al., 2008, Moore et al., 2000): 8 fold
lower activation of zebrafish full-length PXR compared with zebrafish PXR-LBD construct [5]: 90%
FHM PXR up-regulation [6]: up to 35 times

SMILES: CC(=O)N1CCN(c2ccc(OCC3COC(Cn4ccnc4)(c4ccc(Cl)cc4Cl)O3)cc2)CC1 (stereo not shown) [KTZ, ketoconazole]
transactivation of cPXR (result in words) [2]: had no effect
transactivation of hPXR (result in words) [3, 7]: had no effect

EC50 [3]: 44 nM
SMILES: CC(C)NCC(O)COc1cccc2ccccc12 (stereo not shown) [Propranolol, propranolol]
